Earlier results on two compounds are cited in patent publication US20150133416A1, “Pharmaceutical Composition Comprising Abiraterone Acetate” (Jagotec AG, priority 2012, published 2015).

The structures appear in SMILES notation. Read-outs that look alike come from different tables or passages of the source.

The conditions of data set [1]: 20 mg delayed release capsules administered with apple sauce.
Assay in data set [2]: not given
The source holds these as a separate data set.

For `COc1ccc2[nH]c([S+]([O-])Cc3ncc(C)c(OC)c3C)nc2c1` (stereo not shown) [omeprazole], the “reduction in Cmax” value in data set [1] is listed as 25%.
Take `C[C@]12CC[C@H](O)CC1=CC[C@@H]1[C@@H]2CC[C@]2(C)C(c3cccnc3)=CC[C@@H]12` [abiraterone]: the aqueous solubility result was “poor” and the “log P” value is on record as “very high”. In addition, in data set [2] (after a high fat meal), the “AUC elevation compared with the fasted state” value is 10 fold and the “Cmax elevation compared with the fasted state” value is 17 fold. Further, in data set [2] (after a low fat meal), the “AUC elevation compared with the fasted state” value is on record as 5 fold and the “Cmax elevation compared with the fasted state” value is recorded as 7 fold.
